Counter-ions that a name gives are not always drawn. Like-named read-outs stand apart in the source and are kept apart here.
Assays:
E. coli CSH(RE45) = assay: microbe, parasite or virus in culture; assay type: cell-based; conditions: Escherichia coli, 16 h, read-out: Minimum Inhibitory Concentration (MIC), *E. coli CSH(RE45), lactamase-producing strain; 10^6 CFU/ml
Summary of the method: (§1)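 MICs (μg/ml) were read after 16 hours at 37°C. Test strains, grown overnight in Mueller Hinton broth, were spotted at 10^6 CFU/ml onto Mueller Hinton agar plates containing the compounds at a range of concentrations.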

E. coli CSH2 (RK1) = assay: microbe, parasite or virus in culture; assay type: cell-based; conditions: Escherichia coli, 16 h, read-out: Minimum Inhibitory Concentration (MIC), *E. coli CSH2 (RK1), lactamase-producing strain; 10^6 CFU/ml
Summary of the method: as §1

E. cloacae 963 = assay: in vitro antibacterial activity, agar plate dilution method (MIC); assay type: cell-based; conditions: 10^6 CFU/ml
Summary of the method: as §1

E. cloacae Nek 39 = assay: as above; assay type: cell-based; conditions: Enterobacter cloacae, NEK39, 16 h, 10^6 CFU/ml
Summary of the method: as §1

E. coli GN5482 = assay: as above; assay type: cell-based; conditions: Escherichia coli, GN5482, 16 h, read-out: Minimum Inhibitory Concentration (MIC)
Summary of the method: as §1

E. coli NIHJ JC2 = assay: as above; assay type: cell-based; conditions: Escherichia coli
Summary of the method: as §1

K. oxytoca GN10650 = assay: as above; assay type: cell-based; conditions: Klebsiella oxytoca, 10^6 CFU/ml
Summary of the method: as §1

K. pneumoniae No. 42 = assay: as above; assay type: cell-based; conditions: Klebsiella pneumoniae, 10^6 CFU/ml
Summary of the method: as §1

K. pneumoniae PCI-602 = assay: as above; assay type: cell-based; conditions: Klebsiella pneumoniae, PCI602, 16 h, 10^6 CFU/ml
Summary of the method: as §1

M. morganii GN5407 = assay: as above; assay type: cell-based; conditions: Morganella morganii, GN5407, 16 h, read-out: Minimum Inhibitory Concentration (MIC), *M. morganii GN5407, lactamase-producing strain; 10^6 CFU/ml
Summary of the method: as §1

P. vulgaris HX-19 = assay: as above; assay type: cell-based; conditions: Proteus vulgaris, HX19, 16 h, P. vulgaris HX-19; 10^6 CFU/ml; read-out: Minimum Inhibitory Concentration (MIC)
Summary of the method: as §1

P. vulgaris No. 33 = assay: as above; assay type: cell-based; conditions: Proteus vulgaris, 10^6 CFU/ml
Summary of the method: as §1

S. aureus 209P NIHJ-JC1 = assay: as above; assay type: cell-based; conditions: Staphylococcus aureus, 16 h, read-out: Minimum Inhibitory Concentration (MIC)
Summary of the method: as §1

S. marcescens IAM 1184 = assay: as above; assay type: cell-based; conditions: Serratia marcescens, IAM1184, 16 h, read-out: Minimum Inhibitory Concentration (MIC)
Summary of the method: as §1

S. marcescens No. 16-2 = assay: as above; assay type: cell-based; conditions: Serratia marcescens, NO.162, 16 h, read-out: Minimum Inhibitory Concentration (MIC)
Summary of the method: as §1

Ps. aeruginosa AK 109 = assay: as above; assay type: cell-based, Pseudomonas aeruginosa; conditions: Pseudomonas aeruginosa, AK109, 16 h, read-out: Minimum Inhibitory Concentration (MIC)
Summary of the method: as §1

Ps. aeruginosa AKR17 = assay: as above; assay type: cell-based, Pseudomonas aeruginosa; conditions: Pseudomonas aeruginosa, 16 h; Ps. aeruginosa AKR17; 10^6 CFU/ml; read-out: Minimum Inhibitory Concentration (MIC)
Summary of the method: as §1

Ps. aeruginosa IF03445 = assay: as above; assay type: cell-based, Pseudomonas aeruginosa; conditions: Pseudomonas aeruginosa, 10^6 CFU/ml
Summary of the method: as §1

Ps. cepacia 23 = assay: as above; assay type: cell-based, Pseudomonas cepacia; conditions: read-out: Minimum Inhibitory Concentration (MIC)
Summary of the method: as §1

A. calcoaceticus No. 4 = assay: as above; assay type: cell-based, Acinetobacter calcoaceticus; conditions: Acinetobacter calcoaceticus, NO.4, 16 h, A. calcoaceticus No. 4; 10^6 CFU/ml; read-out: Minimum Inhibitory Concentration (MIC)
Summary of the method: as §1

[1] = *E. cloacae Nek 39, lactamase-producing strain, read-out: Minimum Inhibitory Concentration (MIC)
[2] = 16 h, *K. oxytoca GN10650, lactamase-producing strain, read-out: Minimum Inhibitory Concentration (MIC)
[3] = K. pneumoniae PCI-602, read-out: Minimum Inhibitory Concentration (MIC)
[4] = S. aureus 209P NIHJ-JC1, 10^6 CFU/ml, 37° C., 16 hours
[5] = *S. marcescens No. 16-2, lactamase-producing strain, 10^6 CFU/ml
[6] = Ps. aeruginosa AK 109, 10^6 CFU/ml
[7] = 16 h, Ps. aeruginosa IF03445, read-out: Minimum Inhibitory Concentration (MIC)
[8] = Enterobacter cloacae, 963, 16 h, read-out: Minimum Inhibitory Concentration (MIC), E. cloacae 963
[9] = NIHJJC2, 16 h, read-out: Minimum Inhibitory Concentration (MIC), E. coli NIHJ JC2, 10^6 CFU/ml, 37° C.
[10] = NO.42, 16 h, read-out: Minimum Inhibitory Concentration (MIC), *K. pneumoniae No. 42, lactamase-producing strain
[11] = NO.33, 16 h, read-out: Minimum Inhibitory Concentration (MIC), *P. vulgaris No. 33, lactamase-producing strain

Compound	MIC (E. coli CSH(RE45))	MIC (E. coli CSH2 (RK1))	MIC (E. cloacae Nek 39; [1])	MIC (E. coli GN5482)	MIC (K. oxytoca GN10650; [2])	MIC (K. pneumoniae PCI-602; [3])	MIC (M. morganii GN5407)	MIC (P. vulgaris HX-19)	MIC (S. aureus 209P NIHJ-JC1; [4])	MIC (S. marcescens No. 16-2; [5])	MIC (Ps. aeruginosa AK 109; [6])	MIC (Ps. aeruginosa AKR17)	MIC (Ps. aeruginosa IF03445; [7])	MIC (A. calcoaceticus No. 4)	MIC (E. cloacae 963; [8])	MIC (E. coli NIHJ JC2; [9])	MIC (K. pneumoniae No. 42; [10])	MIC (P. vulgaris No. 33; [11])	MIC (S. marcescens IAM 1184)	MIC (Ps. cepacia 23; Burkholderia cepacia, 23, 16 h)	also measured
CO/N=C(\C(=O)N[C@@H]1C(=O)N2C(C(=O)O)=C(CSc3nnc(-c4ccc(O)cc4)s3)CS[C@H]12)c1csc(N)n1 [compound 7, 7β-[2-(2-aminothiazol-4-yl)-2methoxyiminoacetamido]-3-[5-(4-hydroxyphenyl-1,3,4-thiadiazol-2-yl)thiomethyl-3-cephem-4-carboxylic acid trifluoroacetate, reference compound]	0.2 µg/mL	0.2 µg/mL	3.12 µg/mL	0.78 µg/mL	3.12 µg/mL	< 0.006 µg/mL	0.78 µg/mL	< 0.006 µg/mL	0.39 µg/mL	3.12 µg/mL	25 µg/mL	> 100 µg/mL	25 µg/mL	1.56 µg/mL	–	–	–	–	–	–	MIC (E. cloacae 963; Enterobacter cloacae, 16 h, E. cloacae 963, read-out: Minimum Inhibitory Concentration (MIC)): 1.56 µg/mL; MIC (E. coli NIHJ JC2; NIHJJC2, E. coli NIHJ JC2, 10^6 CFU/ml, 37° C., 16 hours, read-out: Minimum Inhibitory Concentration (MIC)): 0.39 µg/mL; MIC (K. pneumoniae No. 42; 16 h, *K. pneumoniae No. 42, lactamase-producing strain, read-out: Minimum Inhibitory Concentration (MIC)): 1.56 µg/mL; MIC (P. vulgaris No. 33; 16 h, *P. vulgaris No. 33, lactamase-producing strain, read-out: Minimum Inhibitory Concentration (MIC)): 1.56 µg/mL; MIC (S. marcescens IAM 1184; S. marcescens IAM 1184, 10^6 CFU/ml): 0.39 µg/mL; MIC (Ps. cepacia 23; Burkholderia cepacia, 16 h, Ps. cepacia 23, 10^6 CFU/ml): 3.12 µg/mL
CO/N=C(\C(=O)N[C@@H]1C(=O)N2C(C(=O)O)=C(CSc3nc(-c4ccc(O)cc4)cs3)CS[C@H]12)c1csc(N)n1 [compound 10, sodium 7β-[2-(2-aminothiazol-4-yl)-2-methoxyiminoacetamido]-3-[4-(4-hydroxyphenyl)thiazol-2-yl]thiomethyl-3-cephem-4-carboxylate, reference compound]	0.78 µg/mL	0.39 µg/mL	–	0.39 µg/mL	–	–	0.78 µg/mL	< 0.006 µg/mL	0.2 µg/mL	–	–	> 100 µg/mL	–	50 µg/mL	1.56 µg/mL	0.78 µg/mL	1.56 µg/mL	0.78 µg/mL	0.78 µg/mL	3.12 µg/mL	MIC (E. cloacae Nek 39; read-out: Minimum Inhibitory Concentration (MIC), *E. cloacae Nek 39, lactamase-producing strain): 3.12 µg/mL; MIC (K. oxytoca GN10650; GN10650, 16 h, read-out: Minimum Inhibitory Concentration (MIC), *K. oxytoca GN10650, lactamase-producing strain): 3.12 µg/mL; MIC (K. pneumoniae PCI-602; read-out: Minimum Inhibitory Concentration (MIC), K. pneumoniae PCI-602): < 0.006 µg/mL; MIC (S. marcescens No. 16-2): 3.12 µg/mL; MIC (Ps. aeruginosa AK 109): 12.5 µg/mL; MIC (Ps. aeruginosa IF03445; IF03445, 16 h, read-out: Minimum Inhibitory Concentration (MIC), Ps. aeruginosa IF03445): 6.25 µg/mL
CO/N=C(\C(=O)N[C@@H]1C(=O)N2C(C(=O)O)=C(CSc3nc(-c4ccc(OC)c(OC)c4)cs3)CS[C@H]12)c1csc(N)n1 [compound 13, trifluoroacetate, reference compound]	6.25 µg/mL	1.56 µg/mL	25 µg/mL	3.12 µg/mL	25 µg/mL	0.05 µg/mL	6.25 µg/mL	0.05 µg/mL	–	50 µg/mL	100 µg/mL	> 100 µg/mL	> 100 µg/mL	100 µg/mL	12.5 µg/mL	6.25 µg/mL	6.25 µg/mL	3.12 µg/mL	3.12 µg/mL	12.5 µg/mL	MIC (S. aureus 209P NIHJ-JC1): 0.39 µg/mL
